Source: publication PMC3205048, “Differential Modulation of Beta-Adrenergic Receptor Signaling by Trace Amine-Associated Receptor 1 Agonists” (PLoS ONE, 2011)
Read-outs that look alike come from different tables or passages of the source.

Key:
Type in all cases: cell-based
hADRB2 = biological target: T1, hADRB2 (Homo sapiens, UniProt P07550); test: cAMP accumulation (AlphaScreen) in HEK293 cells transiently transfected with hADRB2, ligand alone or co-stimulation with ISOP; settings: for agonistic effect of the ligand alone: ligand alone 6.7 nM to 6700 nM, 45 min; for effect on ISOP stimulation: pre-incubation 6.7 nM to 6700 nM 15 min, then ISOP 1 nM to 10000 nM 30 min
T1 construct: HA tag (N); expressed in transfected cells; host or cells: HEK293 (ATCC-LGC), transient transfection, vector pcDps
Protocol: (§1) We functionally tested the effects of particular trace amines at the human ADRB1 and ADRB2 (figure 3). […] Controls were stimulated with each trace amine and ISOP alone, respectively.
(§2) Figure 3 Characterization of hADRB1 and hADRB2 after trace amine challenge. HEK293 cells were transiently transfected with hADRB1 and hADRB2, respectively. […] As controls hADRB1 and hADRB2 were incubated with each substance alone with the same concentration for 45 minutes. Three to four independent experiments measured in duplex or tripletts mean ± SEM are depicted here. […] Maximal values were statistically analyzed using paired one-tail t-test compared to ISOP maximal stimulation. A-B) hADRB1 and hADRB2 were stimulated with ISOP and TYR alone and with both substances simultaneously.
Human β2-adrenergic receptor (ADRB2, NM_000024.5) was subcloned via EcoRI and SpeI with an N-terminal (HA)-tag as well.
Human embryonic kidney cells (HEK293) were cultured in Minimum Essential Medium (MEM) Earle's (Biochrom AG) supplemented with 10% FBS (PAA Laboratories GmbH), 100 U/ml penicillin, and 100 µg/ml streptomycin (Biochrom AG) and 2 mM L-glutamine (Invitrogen) at 37°C with 5% CO2. 48 well plates were coated with Poly-L-Lysine (Biochrom) and HEK293 cells were seeded with 37,500 cells per well. Transient transfection in triplicates with 84 ng DNA/well using metafectene according to manufactures instructions (Biontex, Munich, Germany) was performed 28 hours later. 40 hours after transfection cells were pre-incubated for 5 minutes with stimulation buffer containing of MEM Earle's media and 1 mM 3-isobutyl-1-methylxanthine (IBMX, Sigma). This stimulation buffer was used for all further steps. […] Ligands were all purchased from Sigma, Munich. Controls were incubated with tyramine, β-phenylethylamine, octopamine or isoprenaline for 45 minutes. All reactions were performed at 37°C with 5% CO2 saturated air and stopped by aspirating medium. Cells were lysed at 4°C for 2 h on a shaking platform with cell lysis buffer containing […] HEPES, 0.1% BSA, 0.3% Tween20 and 1 mM IBMX.
(§3) The competitive cyclic adenosine-monophosphate (cAMP) assay via Alphascreen (Perkin Elmer Life Science, Inc., Boston, MA) was carried out according to the manufacturers' protocol. Briefly, 5 µl of each sample were transferred to a 384 well plate. Acceptor beads were diluted in 1X HBSS with 1M HEPES, 0.1% BSA, pH 7.4 and incubated for 30 minutes at room temperature. Then donor beads and 50 µM biotinylated cAMP diluted in the same way were added and incubated for an hour at room temperature. Measurement of the plate was performed using Berthold Microplate Reader (Berthold Technologies GmbH & Co. KG). Results are expressed in fold over mock (unstimulated empty vector).

hTAAR1 = biological target: T2, hTAAR1 (Homo sapiens, UniProt Q96RJ0); test: cAMP accumulation (AlphaScreen) in HEK293 cells transiently transfected with hTAAR1
T2 construct: Full length human TAAR1 (hTAAR1, NM_138327.1) was subcloned; first 20 amino acids of bovine rhodopsin (N); expressed in transfected cells; host or cells: HEK293, transient transfection, vector pcDps
T2 sequence (Q96RJ0 1-339): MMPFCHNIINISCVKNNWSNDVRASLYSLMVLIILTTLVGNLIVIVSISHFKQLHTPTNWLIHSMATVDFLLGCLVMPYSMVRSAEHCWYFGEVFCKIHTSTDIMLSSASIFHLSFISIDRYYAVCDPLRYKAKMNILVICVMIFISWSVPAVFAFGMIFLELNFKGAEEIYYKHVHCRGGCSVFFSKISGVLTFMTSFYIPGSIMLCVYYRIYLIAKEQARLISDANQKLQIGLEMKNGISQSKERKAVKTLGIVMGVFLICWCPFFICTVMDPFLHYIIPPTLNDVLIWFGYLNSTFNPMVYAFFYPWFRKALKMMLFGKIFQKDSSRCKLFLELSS
Protocol: Figure 2 Functional characterization of hTAAR1 interacting with different trace amines. HEK293 cells transiently transfected with hTAAR1 and were incubated for 45 minutes with […] of PEA, OA and TYR. Basal signaling activity as well as activation of the Gs protein/adenylyl cyclase pathway was determined by AlphaScreen technology. Data represent mean ± SEM of cAMP accumulation after stimulation from 4–5 independent experiments performed in triplicates. […]. Data were analyzed using a paired one-tailed t-test.
Full length human TAAR1 (hTAAR1, NM_138327.1) was subcloned into the eukaryotic expression vector pcDps, N-terminally tagged with an hemagglutinin (5′ […] 3′) epitope via KpnI and SpeI restriction sites. For better cell surface expression hTAAR1 was additionally N-terminally fused with the first 20 amino acids of the bovine Rhodopsin [18], [33]. The human β1-adrenergic receptor (hADRB1, NM_000684.2)-pcDps construct cloned via KpnI/SpeI containing N-terminal (HA)-tag and C-terminal Flag-tag (5′ […] 3′).
Human embryonic kidney cells (HEK293) were cultured in Minimum Essential Medium (MEM) Earle's (Biochrom AG) supplemented with 10% FBS (PAA Laboratories GmbH), 100 U/ml penicillin, and 100 µg/ml streptomycin (Biochrom AG) and 2 mM L-glutamine (Invitrogen) at 37°C with 5% CO2. 48 well plates were coated with Poly-L-Lysine (Biochrom) and HEK293 cells were seeded with 37,500 cells per well. Transient transfection in triplicates with 84 ng DNA/well using metafectene according to manufactures instructions (Biontex, Munich, Germany) was performed 28 hours later. 40 hours after transfection cells were pre-incubated for 5 minutes with stimulation buffer containing of MEM Earle's media and 1 mM 3-isobutyl-1-methylxanthine (IBMX, Sigma). This stimulation buffer was used for all further steps. […]. Ligands were all purchased from Sigma, Munich. Controls were incubated with tyramine, β-phenylethylamine, octopamine or isoprenaline for 45 minutes. All reactions were performed at 37°C with 5% CO2 saturated air and stopped by aspirating medium. Cells were lysed at 4°C for 2 h on a shaking platform with cell lysis buffer containing […] HEPES, 0.1% BSA, 0.3% Tween20 and 1 mM IBMX.
as §3, with “vector). Dose response curves and bar graphs with mean ± SEM as well as statistical analysis (paired one-tailed t-test) were generated using GraphPad Prism Version 4.03.” for “vector).”
Supplementary file pone.0027073.s001.tif: Figure S1 Dose response curves of hTAAR1 agonists. […]. HEK293 transiently expressing hTAAR1 were stimulated with each trace amine in concentrations ranging 0.1 mM to 10 nM. Shown are dose response curves fold over basal means ± SEM from n≥4 independent experiments of measured cAMP in triplicates as described in Material and Methods. […]. Data were analyzed using paired one-tailed t-test tested against basal value of hTAAR1. (TIF) Click here for additional data file.

hADRB1 = biological target: T3, hADRB1 (Homo sapiens, UniProt P08588)
T3 construct: HA tag (N); expressed in transfected cells; host or cells: HEK293 (ATCC-LGC), transient transfection, vector pcDps
Protocol: as §1, §2
Human embryonic kidney cells (HEK293) were cultured in Minimum Essential Medium (MEM) Earle's (Biochrom AG) supplemented with 10% FBS (PAA Laboratories GmbH), 100 U/ml penicillin, and 100 µg/ml streptomycin (Biochrom AG) and 2 mM L-glutamine (Invitrogen) at 37°C with 5% CO2. […]
The competitive cyclic adenosine-monophosphate (cAMP) assay via Alphascreen (Perkin Elmer Life Science, Inc., Boston, MA) was carried out according to the manufacturers' protocol. […] Measurement of the plate was performed using Berthold Microplate Reader (Berthold Technologies GmbH & Co. KG). […]

[1] = ligand alone, 45 min, HEK293, cAMP, mean ± SEM
[2] = ligand alone, HEK293, cAMP accumulation, mean ± SEM, n≥3, read-out: EC50

T1 sequence (P07550 whole entry): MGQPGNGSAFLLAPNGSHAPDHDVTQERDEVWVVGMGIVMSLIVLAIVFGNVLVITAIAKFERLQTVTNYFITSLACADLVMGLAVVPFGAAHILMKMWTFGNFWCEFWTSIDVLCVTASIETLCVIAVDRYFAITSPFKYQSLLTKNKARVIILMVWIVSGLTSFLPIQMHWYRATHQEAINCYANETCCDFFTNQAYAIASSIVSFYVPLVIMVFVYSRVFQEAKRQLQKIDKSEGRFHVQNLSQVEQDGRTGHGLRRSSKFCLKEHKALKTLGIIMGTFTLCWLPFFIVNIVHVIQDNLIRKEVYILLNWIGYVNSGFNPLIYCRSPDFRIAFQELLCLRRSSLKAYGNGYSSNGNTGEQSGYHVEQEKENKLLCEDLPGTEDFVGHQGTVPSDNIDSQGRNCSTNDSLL
T3 sequence (P08588 whole entry): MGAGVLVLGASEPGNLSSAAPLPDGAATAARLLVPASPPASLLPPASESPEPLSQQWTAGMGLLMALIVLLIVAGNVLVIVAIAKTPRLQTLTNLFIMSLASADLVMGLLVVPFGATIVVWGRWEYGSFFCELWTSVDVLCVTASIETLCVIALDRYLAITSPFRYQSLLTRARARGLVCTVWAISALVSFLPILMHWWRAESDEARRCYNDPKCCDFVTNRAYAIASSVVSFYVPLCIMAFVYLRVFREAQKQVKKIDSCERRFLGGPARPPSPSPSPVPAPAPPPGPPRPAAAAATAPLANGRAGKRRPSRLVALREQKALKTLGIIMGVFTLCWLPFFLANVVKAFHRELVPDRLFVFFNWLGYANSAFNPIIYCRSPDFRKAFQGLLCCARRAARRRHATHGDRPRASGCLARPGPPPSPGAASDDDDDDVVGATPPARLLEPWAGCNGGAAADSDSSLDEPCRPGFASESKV

SMILES	agonistic effect of the ligand alone (hADRB2)	effect on ISOP stimulation (hADRB2)	activation of hTAAR1 (adenylyl cyclase stimulation, cAMP formation) (hTAAR1; HEK293, 45 min)	Emax (hTAAR1; [1]) [nM]	EC50 (hTAAR1; [2]) [µM]	effect on ISOP stimulation (hADRB1)	agonistic effect of the ligand alone (hADRB1; ligand alone 6.7 nM to 6700 nM, 45 min)	EC50 (hTAAR1) [µM]	Emax (hTAAR1) [nM]	activation of hTAAR1 (adenylyl cyclase stimulation, cAMP formation) (hTAAR1)
NCC(O)c1ccc(O)cc1 (centres unmarked) [OA, octopamine]	no agonistic effect	orthosteric antagonist	activate hTAAR1	172 ± 42	4.17 ± 1.47					
NCCc1ccccc1 [PEA, β-phenylethylamine]	no agonistic effects	non-competitively antagonized	activate hTAAR1	403 ± 54	0.26 ± 0.016	non-competitively antagonized	no agonistic effects			
NCCc1ccc(O)cc1 [TYR, tyramine]	no agonistic effect	allosteric antagonist						1.54 ± 0.251	219 ± 67	activate hTAAR1
